From patent US11572399B2, “Long-acting GIP peptide analogues” (University of Copenhagen, priority 2017, dated 2023)
Peptide text beside a SMILES is read from it. * marks the point of attachment. C16 diacid = O=C(O)CCCCCCCCCCCCCCC(=O)*; Palmitoyl = CCCCCCCCCCCCCCCC(=O)*

How the values were obtained:
human GIP receptor [1] = target: T1, human GIP receptor (Homo sapiens, UniProt P48546); assay: cAMP accumulation assay, agonism (ligand alone); assay type: cell-based; conditions: COS-7 cells, Table 1; for Emax: COS-7, intrinsic cAMP activity; for EC50: read-out: cAMP agonism nM (EC50)
T1 construct: host or cells: COS-7, transient transfection (calcium phosphate), cDNA in pCMV-Script
T1 sequence (P48546 22-466): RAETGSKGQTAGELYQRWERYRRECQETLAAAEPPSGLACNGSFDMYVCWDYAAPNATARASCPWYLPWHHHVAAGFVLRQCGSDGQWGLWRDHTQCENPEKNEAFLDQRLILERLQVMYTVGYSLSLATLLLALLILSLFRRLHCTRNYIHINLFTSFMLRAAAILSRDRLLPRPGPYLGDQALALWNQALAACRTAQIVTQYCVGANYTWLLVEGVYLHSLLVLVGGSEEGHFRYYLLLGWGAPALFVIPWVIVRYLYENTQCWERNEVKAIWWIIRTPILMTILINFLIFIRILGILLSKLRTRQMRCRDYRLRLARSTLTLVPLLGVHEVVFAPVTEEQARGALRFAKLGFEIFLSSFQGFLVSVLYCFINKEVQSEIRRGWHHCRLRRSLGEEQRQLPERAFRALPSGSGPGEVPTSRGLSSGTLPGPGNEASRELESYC

human GIP receptor [2] = target: T1, human GIP receptor; assay: cAMP accumulation assay, antagonism of a GIP-mediated cAMP response (50-80% of max); assay type: cell-based; conditions: for Fold change of IC50 versus GIP(5-30)NH2: fold change of IC50 from GIP(5-30)NH2; for cAMP - antagonisme fold (paired): fold vs GIP(3-30)NH2
Experimental: The day after, the cells were washed twice with Hepes buffered saline (HBS) buffer and incubated with HBS and 1 mM 3-isobutyl-1-methylxanthine (IBMX) for 30 min at 37° C. […] The HitHunter™ cAMP XS assay (DiscoveRx) was carried out according to the manufacturer's instructions.

human GIP receptor [3] = target: T1, human GIP receptor; assay: 125I-human GIP competition binding assay, in the presence and absence of 2% HSA; conditions: for Fold change HSA (2%)/Casein (0.1%): IC50 (plus HSA)/IC50 (minus HSA); for Binding (+/−HSA) Fold: fold change +HSA/−HSA; for Binding fold (paired): fold decrease in affinity compared to GIP(3-30)NH2; for Ki: presence of 2% HSA;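 on all read-outs here: nonspecific binding taken as radioligand bound to untransfected cells, IC50 obtained from nonlinear regression fits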
[4] = Table 3b, initial data, read-out: Binding IC50
[5] = heterologous competition binding, transiently transfected COS-7 cells expressing the human GIP receptor, read-out: Binding
[6] = transiently transfected COS-7 cells, Table 1 and text, read-out: cAMP antagonism nM (IC50, antagonistic potency)
[7] = binding in 0.1% casein (absence of HSA), log value, read-out: logIC50 0.1% casein (converted)
[8] = antagonism of GIP-mediated cAMP response, COS-7 cells, read-out: cAMP accumulation IC50

For `CC[C@H](C)[C@H](NC(=O)[C@H](CO)NC(=O)[C@H](Cc1ccc(O)cc1)NC(=O)[C@H](CC(=O)O)NC(=O)[C@H](CO)NC(=O)[C@@H](NC(=O)[C@H](Cc1ccccc1)NC(=O)[C@@H](N)[C@@H](C)O)[C@@H](C)CC)C(=O)N[C@@H](C)C(=O)N[C@@H](CCSC)C(=O)N[C@@H](CC(=O)O)C(=O)N[C@@H](CCCCN)C(=O)N[C@H](C(=O)N[C@@H](Cc1c[nH]cn1)C(=O)N[C@@H](CCC(N)=O)C(=O)N[C@@H](CCC(N)=O)C(=O)N[C@@H](CC(=O)O)C(=O)N[C@@H](Cc1ccccc1)C(=O)N[C@@H](CCCCNC(=O)CCCCCCCCCCCCCCC(=O)O)C(=O)N[C@@H](CC(N)=O)C(=O)N[C@@H](Cc1c[nH]c2ccccc12)C(=O)N[C@@H](CC(C)C)C(=O)N[C@@H](CC(C)C)C(=O)N[C@@H](C)C(=O)N[C@@H](CCC(N)=O)C(=O)N[C@@H](CCCCN)C(N)=O)[C@@H](C)CC` [AT183, [hGIP(5-30)NH2[V23K]-C16diacid/23]] (H-TFISDYSIAMDKIHQQDFK(C16 diacid)NWLLAQK-NH2; N-terminus assumed), the Emax (human GIP receptor [1]) was 0%, the “Fold change of IC50 versus GIP(5-30)NH2” value (human GIP receptor [2]) was 55.0 and the “Fold change HSA (2%)/Casein (0.1%)” value (human GIP receptor [3]) was 1.8. The “Binding (+/−HSA) Fold” value (human GIP receptor [3]) was 4.4.

`CCCCCCCCCCCCCCCC(=O)NCCCC[C@H](NC(=O)[C@H](CCC(=O)O)NC(=O)[C@H](CCSC)NC(=O)[C@H](C)NC(=O)[C@@H](NC(=O)[C@H](CO)NC(=O)[C@H](Cc1ccc(O)cc1)NC(=O)[C@H](CC(=O)O)NC(=O)[C@H](CO)NC(=O)[C@@H](NC(=O)[C@H](Cc1ccccc1)NC(=O)[C@@H](NC(=O)CNC(=O)[C@@H](N)CCC(=O)O)[C@@H](C)O)[C@@H](C)CC)[C@@H](C)CC)C(=O)N[C@H](C(=O)N[C@@H](C)C(=O)N[C@@H](CCC(N)=O)C(=O)N[C@@H](CCC(N)=O)C(=O)N[C@@H](CC(=O)O)C(=O)N[C@@H](Cc1ccccc1)C(=O)N[C@H](C(=O)N[C@@H](CC(N)=O)C(=O)N[C@@H](Cc1c[nH]c2ccccc12)C(=O)N[C@@H](CC(C)C)C(=O)N[C@@H](CC(C)C)C(=O)N[C@@H](C)C(=O)N[C@@H](CCC(N)=O)C(=O)N[C@@H](CCCCN)C(N)=O)C(C)C)[C@@H](C)CC` [AT131, [hGIP(3-30)NH2[D15E; H18A]-C16/16]] (H-EGTFISDYSIAMEK(Palmitoyl)IAQQDFVNWLLAQK-NH2; N-terminus assumed) was tested, and the Emax (human GIP receptor [1]) was 35%, the IC50 (human GIP receptor [2]; Table 3b, initial data, read-out: cAMP - antagonisme IC50) was 65 nM and the “cAMP - antagonisme fold (paired)” value (human GIP receptor [2]; Table 3b) was 1.1 fold. The IC50 (human GIP receptor [2]; given as log IC50 (negative sign), transiently transfected COS-7 cells, Table 1, read-out: cAMP antagonism log (converted)) was 39.8 nM, the IC50 (human GIP receptor [3]; [4]) was 6510 nM and the “Binding fold (paired)” value (human GIP receptor [3]; Table 3b) was 49 fold. The IC50 (human GIP receptor [3]; [5]) was 6510 nM.

With `CC[C@H](C)[C@H](NC(=O)[C@H](CO)NC(=O)[C@H](Cc1ccc(O)cc1)NC(=O)[C@H](CC(=O)O)NC(=O)[C@H](CO)NC(=O)[C@H](CCCCNC(=O)CCCCCCCCCCCCCCC(=O)O)NC(=O)[C@H](Cc1ccccc1)NC(=O)[C@@H](N)[C@@H](C)O)C(=O)N[C@@H](C)C(=O)N[C@@H](CCSC)C(=O)N[C@@H](CC(=O)O)C(=O)N[C@@H](CCCCN)C(=O)N[C@H](C(=O)N[C@@H](Cc1c[nH]cn1)C(=O)N[C@@H](CCC(N)=O)C(=O)N[C@@H](CCC(N)=O)C(=O)N[C@@H](CC(=O)O)C(=O)N[C@@H](Cc1ccccc1)C(=O)N[C@H](C(=O)N[C@@H](CC(N)=O)C(=O)N[C@@H](Cc1c[nH]c2ccccc12)C(=O)N[C@@H](CC(C)C)C(=O)N[C@@H](CC(C)C)C(=O)N[C@@H](C)C(=O)N[C@@H](CCC(N)=O)C(=O)N[C@@H](CCCCN)C(N)=O)C(C)C)[C@@H](C)CC` [AT169, [hGIP(5-30)NH2[I7K]-C16diacid/7]] the Emax (human GIP receptor [1]) was 0%, the “Fold change of IC50 versus GIP(5-30)NH2” value (human GIP receptor [2]) was 3.0 and the IC50 (human GIP receptor [2]; [6]) was 37 nM. For the same compound, the “Fold change HSA (2%)/Casein (0.1%)” value (human GIP receptor [3]) was 5.8, the IC50 (human GIP receptor [3]; [7]) was 31.6 nM and the IC50 (human GIP receptor [3]; binding in presence of 2% HSA, read-out: logIC50 2% HSA (converted)) was 166 nM. The “Binding (+/−HSA) Fold” value (human GIP receptor [3]) was 4.8, the IC50 (human GIP receptor [3]; [5]) was 28 nM and the Ki (human GIP receptor [3]) was 126 nM. The “Fold change in affinity, IC50 (plus HSA)/IC50 (minus HSA)” value (human GIP receptor [3]; presence vs absence of 2% HSA, proxy for albumin binding) was 5.8 fold.

`CC[C@H](C)[C@H](NC(=O)[C@H](CO)NC(=O)[C@H](Cc1ccc(O)cc1)NC(=O)[C@H](CC(=O)O)NC(=O)[C@H](CO)NC(=O)[C@@H](NC(=O)[C@H](Cc1ccccc1)NC(=O)[C@@H](NC(=O)CCCCCCCCCCCCCCC(=O)O)[C@@H](C)O)[C@@H](C)CC)C(=O)N[C@@H](C)C(=O)N[C@@H](CCSC)C(=O)N[C@@H](CC(=O)O)C(=O)N[C@@H](CCCCN)C(=O)N[C@H](C(=O)N[C@@H](Cc1c[nH]cn1)C(=O)N[C@@H](CCC(N)=O)C(=O)N[C@@H](CCC(N)=O)C(=O)N[C@@H](CC(=O)O)C(=O)N[C@@H](Cc1ccccc1)C(=O)N[C@H](C(=O)N[C@@H](CC(N)=O)C(=O)N[C@@H](Cc1c[nH]c2ccccc12)C(=O)N[C@@H](CC(C)C)C(=O)N[C@@H](CC(C)C)C(=O)N[C@@H](C)C(=O)N[C@@H](CCC(N)=O)C(=O)N[C@@H](CCCCN)C(N)=O)C(C)C)[C@@H](C)CC` [AT137, [hGIP(5-30)NH2—C16diacid/5]] was tested, and the Emax (human GIP receptor [1]) was 12%, the EC50 (human GIP receptor [1]) was 18 nM and the “Ability to antagonize the GIP-mediated cAMP response (in words)” value (human GIP receptor [2]) was “high potent antagonists”. The IC50 (human GIP receptor [2]; [8]) was 102 nM, the “Fold change of IC50 versus GIP(5-30)NH2” value (human GIP receptor [2]) was 3.7 and the IC50 (human GIP receptor [2]; [6]) was 182 nM. For the same compound, the “Affinity compared to GIP(3-30)NH2 (in words)” value (human GIP receptor [3]) was “affinities in the same range as GIP(3-30)NH2”, the “Fold change HSA (2%)/Casein (0.1%)” value (human GIP receptor [3]) was 1.9 and the IC50 (human GIP receptor [3]; [7]) was 316 nM. For the same compound, the “Binding (+/−HSA) Fold” value (human GIP receptor [3]) was 2.0, the IC50 (human GIP receptor [3]; [5]) was 286 nM and the Ki (human GIP receptor [3]) was 117 nM.

For `CCCCCCCCCCCCCCCC(=O)NCCCC[C@H](NC(=O)[C@H](CCC(=O)O)NC(=O)[C@H](CCSC)NC(=O)[C@H](C)NC(=O)[C@@H](NC(=O)[C@H](CO)NC(=O)[C@H](Cc1ccc(O)cc1)NC(=O)[C@H](CC(=O)O)NC(=O)[C@H](CO)NC(=O)[C@@H](NC(=O)[C@H](Cc1ccccc1)NC(=O)[C@H](Cc1c[nH]c2ccccc12)NC(=O)CNC(=O)[C@@H](N)CCC(=O)O)[C@@H](C)CC)[C@@H](C)CC)C(=O)N[C@H](C(=O)N[C@@H](C)C(=O)N[C@@H](CCC(N)=O)C(=O)N[C@@H](CCC(N)=O)C(=O)N[C@@H](CC(=O)O)C(=O)N[C@@H](Cc1ccccc1)C(=O)N[C@H](C(=O)N[C@@H](CC(N)=O)C(=O)N[C@@H](Cc1c[nH]c2ccccc12)C(=O)N[C@@H](CC(C)C)C(=O)N[C@@H](CC(C)C)C(=O)N[C@@H](C)C(=O)N[C@@H](CCC(N)=O)C(=O)N[C@@H](CCCCN)C(N)=O)C(C)C)[C@@H](C)CC` [AT107, [hGIP(3-30)NH2[T5W; D15E; H18A]-C16/16]] (H-EGWFISDYSIAMEK(Palmitoyl)IAQQDFVNWLLAQK-NH2; N-terminus assumed), the Emax (human GIP receptor [1]) was 23%, the EC50 (human GIP receptor [1]) was 1300 nM and the “cAMP - antagonisme fold (paired)” value (human GIP receptor [2]; Table 3b) was 3.1 fold. The IC50 (human GIP receptor [3]; [4]) was 5220 nM, the “Binding fold (paired)” value (human GIP receptor [3]; Table 3b) was 186 fold and the IC50 (human GIP receptor [3]; [5]) was 5220 nM.

`CC[C@H](C)[C@H](NC(=O)[C@H](CO)NC(=O)[C@H](Cc1ccc(O)cc1)NC(=O)[C@H](CC(=O)O)NC(=O)[C@H](CO)NC(=O)[C@@H](NC(=O)[C@H](Cc1ccccc1)NC(=O)[C@@H](N)[C@@H](C)O)[C@@H](C)CC)C(=O)N[C@@H](C)C(=O)N[C@@H](CCSC)C(=O)N[C@@H](CC(=O)O)C(=O)N[C@@H](CCCCN)C(=O)N[C@@H](CCCCNC(=O)CCCCCCCCCCCCCCC(=O)O)C(=O)N[C@@H](Cc1c[nH]cn1)C(=O)N[C@@H](CCC(N)=O)C(=O)N[C@@H](CCC(N)=O)C(=O)N[C@@H](CC(=O)O)C(=O)N[C@@H](Cc1ccccc1)C(=O)N[C@H](C(=O)N[C@@H](CC(N)=O)C(=O)N[C@@H](Cc1c[nH]c2ccccc12)C(=O)N[C@@H](CC(C)C)C(=O)N[C@@H](CC(C)C)C(=O)N[C@@H](C)C(=O)N[C@@H](CCC(N)=O)C(=O)N[C@@H](CCCCN)C(N)=O)C(C)C` [AT178, [hGIP(5-30)NH2[I17K]-C16diacid/17]] (H-TFISDYSIAMDKK(C16 diacid)HQQDFVNWLLAQK-NH2; N-terminus assumed) was tested, and the Emax (human GIP receptor [1]) was 0%, the IC50 (human GIP receptor [2]; [8]) was 27.5 nM and the “Fold change of IC50 versus GIP(5-30)NH2” value (human GIP receptor [2]) was 1. The IC50 (human GIP receptor [2]; [6]) was 33 nM, the “Fold change HSA (2%)/Casein (0.1%)” value (human GIP receptor [3]) was 3.0 and the IC50 (human GIP receptor [3]; [7]) was 63.1 nM. The “Binding (+/−HSA) Fold” value (human GIP receptor [3]) was 4.5 and the IC50 (human GIP receptor [3]; [5]) was 66 nM.
